Experimental data: patent US20030073097A1, “TRAF6-regulated IKK activators (TRIKA1 and TRIKA2) and their use as anti-inflammatory targets” (priority 2001, published 2003)
Peptide text beside a SMILES is read from it. * marks the point of attachment. Cbz = O=C(OCc1ccccc1)*

Experiments:
IKK = molecular target: T1, IKK (Homo sapiens, UniProt O14920+O15111); test: In vitro assay for IKK activation by TRAF6 (IκBα phosphorylation); assay type: biochemical; settings: inhibitor at 20 μM added to the assay
T1 construct: IKK complex was purified form HeLa cells or from calf thymus using ATP-Sepharose; endogenous in cells
T1 sequence (O14920 whole entry): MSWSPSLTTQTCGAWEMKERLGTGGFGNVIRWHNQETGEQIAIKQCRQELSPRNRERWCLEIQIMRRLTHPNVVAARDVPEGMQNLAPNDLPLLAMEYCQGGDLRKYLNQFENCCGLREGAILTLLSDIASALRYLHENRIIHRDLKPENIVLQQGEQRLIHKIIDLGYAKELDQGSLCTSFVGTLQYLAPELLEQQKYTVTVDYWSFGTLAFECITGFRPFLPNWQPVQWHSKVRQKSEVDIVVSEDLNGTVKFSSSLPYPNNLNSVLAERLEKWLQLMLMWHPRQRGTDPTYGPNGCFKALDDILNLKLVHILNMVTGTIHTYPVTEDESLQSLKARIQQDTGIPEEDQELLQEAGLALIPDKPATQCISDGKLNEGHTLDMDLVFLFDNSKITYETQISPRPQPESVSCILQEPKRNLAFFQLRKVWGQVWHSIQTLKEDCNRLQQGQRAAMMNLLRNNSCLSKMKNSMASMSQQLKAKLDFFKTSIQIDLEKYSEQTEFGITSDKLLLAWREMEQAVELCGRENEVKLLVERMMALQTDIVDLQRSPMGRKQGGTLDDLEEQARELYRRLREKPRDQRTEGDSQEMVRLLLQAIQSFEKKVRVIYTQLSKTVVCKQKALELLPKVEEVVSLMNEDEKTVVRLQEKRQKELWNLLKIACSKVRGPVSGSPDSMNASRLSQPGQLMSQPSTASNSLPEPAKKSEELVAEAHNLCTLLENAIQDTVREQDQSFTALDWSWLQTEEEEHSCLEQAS
T1 sequence (O15111 whole entry): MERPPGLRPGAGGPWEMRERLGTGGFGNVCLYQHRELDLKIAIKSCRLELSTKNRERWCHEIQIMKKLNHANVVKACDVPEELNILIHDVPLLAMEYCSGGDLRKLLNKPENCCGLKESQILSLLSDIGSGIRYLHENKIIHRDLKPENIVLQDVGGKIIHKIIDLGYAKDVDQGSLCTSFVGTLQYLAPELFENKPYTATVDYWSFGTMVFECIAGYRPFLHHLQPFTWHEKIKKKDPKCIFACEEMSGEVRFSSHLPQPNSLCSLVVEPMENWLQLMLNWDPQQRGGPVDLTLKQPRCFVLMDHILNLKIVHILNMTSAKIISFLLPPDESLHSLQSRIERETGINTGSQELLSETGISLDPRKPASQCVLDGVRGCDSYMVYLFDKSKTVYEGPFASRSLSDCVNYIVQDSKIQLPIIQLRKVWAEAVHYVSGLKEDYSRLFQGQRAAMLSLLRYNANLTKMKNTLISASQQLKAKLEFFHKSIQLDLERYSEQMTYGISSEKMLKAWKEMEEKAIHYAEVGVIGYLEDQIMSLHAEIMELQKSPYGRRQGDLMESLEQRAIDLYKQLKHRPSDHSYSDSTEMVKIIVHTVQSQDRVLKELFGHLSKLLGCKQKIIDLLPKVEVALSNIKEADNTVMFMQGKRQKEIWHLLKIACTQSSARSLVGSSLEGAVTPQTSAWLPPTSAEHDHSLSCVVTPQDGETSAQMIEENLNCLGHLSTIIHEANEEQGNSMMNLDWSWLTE
T1 sequence (Q9Y6K9 whole entry partner): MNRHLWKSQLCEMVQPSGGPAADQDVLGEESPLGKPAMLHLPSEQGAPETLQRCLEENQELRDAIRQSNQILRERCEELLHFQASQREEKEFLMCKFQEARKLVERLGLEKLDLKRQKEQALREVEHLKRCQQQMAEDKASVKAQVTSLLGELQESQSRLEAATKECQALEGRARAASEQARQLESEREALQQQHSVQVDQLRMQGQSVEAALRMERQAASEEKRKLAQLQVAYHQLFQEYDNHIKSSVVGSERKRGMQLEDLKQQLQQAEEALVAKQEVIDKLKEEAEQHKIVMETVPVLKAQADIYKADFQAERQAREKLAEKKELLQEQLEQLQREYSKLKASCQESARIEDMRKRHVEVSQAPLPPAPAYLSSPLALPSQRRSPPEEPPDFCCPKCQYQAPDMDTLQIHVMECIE
Experimental: In vitro Assay for IKK Activation. To detect endogenous IKK activation, cell extracts (5 mg/ml) were incubated with TRAF6 (or, T6RZC, 0.1 μM) together with an ATP regenerating buffer (Chen et al., 1995). After incubation at 30° C. for 1 hour, the reaction was analyzed by immunoblotting with a phospho-IκBα specific antibody. To identify intermediary factors involved in TRAF6-mediated IKK activation, the inventors used a reconstitution assay by adding ^35S-IκBα (0.5 μl) and purified IKK complex (5 nM) to a 5 μl reaction mixture that also contains ATP (2 mM), TRAF6 (0.1 μM), and column fractions (0.5-1 μl). In most IKK activation assays, E1 (0.1 μM) and Ub (0.1 mM) were also added to enhance the reaction, although they can be supplied from the wheat germ extracts used for in vitro translation of IκBα. As an assay for purification of TRIKA1, reaction mixtures also contain 0.5 μg TRIKA2/FrIIa, a fraction eluted from Q-Sepharose with 0.2M NaCl. The reaction was carried out at 30° C. for 1 hour, and then analyzed using a PhosphorImager (Molecular Dynamics) following SDS-PAGE.

proteasome = settings: 20 μM; Chen et al., 1995; cited from earlier work
T6RZC stable 293 cells = test: Coumermycin A-induced TRAF6-gyrase B (T6RZC) dimerization in stable 293 cells, IκBα degradation; assay type: cell-based, human; settings: 293 cells stably expressing T6RZC; coumermycin A 1 μM
Experimental: Generation of TRAF6-gyraseB stable cell lines. The TRAF6-gyrase B fusion was constructed by replacing the C-terminal TRAF domain of TRAF6 (residues 1-358) with the N-terminal fragment of bacterial gyrase B (T6RZC). Another chimeric construct contained residues 1-291 of TRAF6 (T6RZ). These chimeras were cloned into the mammalian expression vector pEF-IRES-P (Deng et al., 2000). Following transfection of DNA into 293 cells, stable clones were selected in puromycin (1 μg/ml). To induce the dimerization of TRAF6 and subsequent activation of the JNK and IKK pathways, cells were treated with coumermycin A (1 μM) for different lengths of time, and then cell extracts prepared for further analysis.

In the case of `CC(C)C[C@@H](C=O)NC(=O)[C@H](CC(C)C)NC(=O)[C@H](CC(C)C)NC(=O)OCc1ccccc1` [MG132] (Cbz-Leu-Leu-Leu-aldehyde), the “Inhibition of IKK activation by TRAF6” value (IKK) is listed as “No inhibition” and the “Block of proteasomal activity” value (proteasome) is listed as “completely block”.

In the case of `CO[C@H]1[C@H](OC(=O)c2ccc(C)[nH]2)[C@H](O)[C@@H](Oc2ccc3c(O)c(NC(=O)c4c[nH]c(C(=O)Nc5c(O)c6ccc(O[C@H]7OC(C)(C)[C@@H](OC)[C@H](OC(=O)c8ccc(C)[nH]8)[C@@H]7O)c(C)c6oc5=O)c4C)c(=O)oc3c2C)OC1(C)C` [coumermycin A], the “Degradation of IκBα upon addition of the dimerizer” value (T6RZC stable 293 cells) was “rapidly degraded”.

For `CC(=O)N[C@@H](CSC(=O)[C@]1([C@@H](O)C(C)C)NC(=O)[C@H](C)[C@@H]1O)C(=O)O` [lactacystin], the “Inhibition of IKK activation by TRAF6” value (IKK) is listed as “No inhibition” and the “Block of proteasomal activity” value (proteasome) is listed as “completely block”.
